We go through 21 compounds from patent publication US20260297070A1, “CYCLIC [COMPOUND LEFT OUT] WRN INHIBITORS” (Nimbus Wadjet, Inc., priority 2023, published 2026).

T1 sequence (Q14191 with tags, fused parts or gaps L1074F limits assumed): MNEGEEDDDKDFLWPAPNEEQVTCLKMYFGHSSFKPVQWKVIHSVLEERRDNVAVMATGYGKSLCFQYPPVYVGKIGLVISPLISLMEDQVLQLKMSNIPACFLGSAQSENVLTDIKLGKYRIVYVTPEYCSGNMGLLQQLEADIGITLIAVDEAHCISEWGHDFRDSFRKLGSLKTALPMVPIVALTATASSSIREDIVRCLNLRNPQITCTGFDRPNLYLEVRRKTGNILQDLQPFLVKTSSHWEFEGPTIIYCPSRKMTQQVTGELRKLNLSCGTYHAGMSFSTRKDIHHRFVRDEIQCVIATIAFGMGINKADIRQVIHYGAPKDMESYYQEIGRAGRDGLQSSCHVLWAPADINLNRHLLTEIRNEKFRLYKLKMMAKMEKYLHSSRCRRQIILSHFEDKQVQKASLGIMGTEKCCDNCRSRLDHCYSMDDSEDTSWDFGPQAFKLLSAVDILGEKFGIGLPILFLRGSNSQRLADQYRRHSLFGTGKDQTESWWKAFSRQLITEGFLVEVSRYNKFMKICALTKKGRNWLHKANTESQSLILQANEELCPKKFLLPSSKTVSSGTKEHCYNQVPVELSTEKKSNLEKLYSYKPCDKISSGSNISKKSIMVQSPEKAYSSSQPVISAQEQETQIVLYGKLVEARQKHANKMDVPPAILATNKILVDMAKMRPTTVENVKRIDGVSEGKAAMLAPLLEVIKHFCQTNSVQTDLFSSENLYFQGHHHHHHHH

The experiment has as its target T1, human Werner helicase (WRN-BV08, Uniprot Q14191, amino acids 517-1235 with L1074F point mutation) (Homo sapiens, UniProt Q14191, L1074F).
T1 construct: Uniprot Q14191, amino acids 517-1235 with L1074F point mutation; TEV-cleavable 8×His (C, cleaved yes); made in house; host or cells: Sf9 insect cells (baculovirus)
The experiment is described as follows: WRN (BV08) ADP-Glo Assay. It counts as biochemical. As to conditions: 0.15 nM WRN, 5 μM ATP, 0.1 nM DNA duplex, 15 min preincubation, 60 min at 25° C., pH 7.5, 1% DMSO; read-out: ADP-Glo_hWRN_IC50. In short, it runs like this:
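WRN 0.15 nM + cpd, 15 min 25 °C; add 5 μM ATP / 0.1 nM annealed DNA duplex; 60 min 25 °C; ADP-Glo stop, RLU. Buffer 20 mM Bicine pH 7.5, 1 mM MgCl2, 10 mM KCl, 1 mM TCEP. IC50, 4-parameter fit.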
Take `CC(C)(O)c1cc(CN(C(=O)Cc2ncc(-c3ccc(F)c(F)c3)cc2F)C2C=CS(=O)(=O)C2)ccn1` (stereo not drawn) [I-82, 2-[5-(3,4-difluorophenyl)-3-fluoropyridin-2-yl]-N-(1,1-dioxo-2,3-dihydro-1lambda6-thiophen-3-yl)-N-{[2-(2-hydroxypropan-2-yl)pyridin-4-yl]methyl}acetamide]: the IC50 was under 0.5 µM.
The result for `O=C([C@H]1[C@@H]2CC(F)(F)C[C@@H]21)N(Cc1ccncc1)C1C=CS(=O)(=O)C1` (stereo partly drawn) [I-617, (1R,5S,6R)-N-(1,1-dioxo-2,3-dihydro-1lambda6-thiophen-3-yl)-3,3-difluoro-N-[(pyridin-4-yl)methyl]bicyclo[3.1.0]hexane-6-carboxamide] reads over 50 µM.
With `O=C(Cc1ccc2oc3ccccc3c2c1)N(Cc1ccncc1)C1C=CS(=O)(=O)C1` (stereo not drawn) [I-428, N-(1,1-dioxo-2,3-dihydro-1lambda6-thiophen-3-yl)-2-{8-oxatricyclo[7.4.0.0^{2,7}]trideca-1(13),2,4,6,9,11-hexaen-4-yl}-N-[(pyridin-4-yl)methyl]acetamide], the IC50 is over 50 µM.
`COc1cc(CN(C(=O)C(c2ccc(-c3ccc(F)c(F)c3)cc2F)n2cnnn2)[C@@H]2C=CS(=O)(=O)C2)ccn1` (stereo partly drawn) [I-734, N-[(3R)-1,1-dioxo-2,3-dihydro-1lambda6-thiophen-3-yl]-N-[(2-methoxypyridin-4-yl)methyl]-2-(1H-1,2,3,4-tetrazol-1-yl)-2-{3,3′,4′-trifluoro-[1,1′-biphenyl]-4-yl}acetamide]: the IC50 was over 50 µM.
For `COCC(C(=O)N(Cc1ccnc(OC)c1)C1C=CS(=O)(=O)C1)n1cc(-c2ccccc2)cn1` (stereo not drawn) [I-357, N-(1,1-dioxo-2,3-dihydro-1lambda6-thiophen-3-yl)-3-methoxy-N-[(2-methoxypyridin-4-yl)methyl]-2-(4-phenyl-1H-pyrazol-1-yl)propanamide], the IC50 was in the range of 10 to 50 µM.
Consider `O=C(Cn1ncc(-c2ccccc2)n1)N(Cc1ccncc1)C1C=CS(=O)(=O)C1` (stereo not drawn) [I-291, N-(1,1-dioxo-2,3-dihydro-1lambda6-thiophen-3-yl)-2-(4-phenyl-2H-1,2,3-triazol-2-yl)-N-[(pyridin-4-yl)methyl]acetamide], for which the IC50 is 10 to 50 µM.
Consider `O=C(Cc1cnn(C2CC2)c1)N(Cc1ccncc1)C1C=CS(=O)(=O)C1` (stereo not drawn) [I-582, 2-(1-cyclopropyl-1H-pyrazol-4-yl)-N-(1,1-dioxo-2,3-dihydro-1lambda6-thiophen-3-yl)-N-[(pyridin-4-yl)methyl]acetamide], for which the IC50 was over 50 µM.
`CC(C)Cc1ccc(CC(=O)N(Cc2ccncc2)C2C=CS(=O)(=O)C2)cc1` (stereo not drawn) [I-283, N-(1,1-dioxo-2,3-dihydro-1lambda6-thiophen-3-yl)-2-[4-(2-methylpropyl)phenyl]-N-[(pyridin-4-yl)methyl]acetamide]: the IC50 was 10 to 50 µM.
In the case of `COC(C(=O)N(Cc1ccncc1)C1C=CS(=O)(=O)C1)c1ccc(-c2ccc(F)cc2)cc1` (single isomer, unassigned) [I-476, (2R*)-N-[(3R**)-1,1-dioxo-2,3-dihydro-1lambda6-thiophen-3-yl]-2-{4′-fluoro-[1,1′-biphenyl]-4-yl}-2-methoxy-N-[(pyridin-4-yl)methyl]acetamide], the IC50 was over 50 µM.
As to `COc1cc(CN(C(=O)Cn2cc(-c3ccc(F)cc3)cn2)C2C=CS(=O)(=O)C2)ccn1` (stereo not drawn) [I-68, N-(1,1-dioxo-2,3-dihydro-1lambda6-thiophen-3-yl)-2-[4-(4-fluorophenyl)-1H-pyrazol-1-yl]-N-[(2-methoxypyridin-4-yl)methyl]acetamide], the IC50 was under 0.5 µM.
For the compound `Cn1cc(CN(C(=O)Cc2ccc(-n3cccc3)cc2)C2C=CS(=O)(=O)C2)cn1` (stereo not drawn) [I-481, N-(1,1-dioxo-2,3-dihydro-1lambda6-thiophen-3-yl)-N-[(1-methyl-1H-pyrazol-4-yl)methyl]-2-[4-(1H-pyrrol-1-yl)phenyl]acetamide], the IC50 was over 50 µM.
As to `CN(C)C(=O)CC(C(=O)N(Cc1ccnc(C(C)(C)O)c1)C1C=CS(=O)(=O)C1)c1ccc(S(F)(F)(F)(F)F)cc1` (stereo not drawn) [I-460, N-(1,1-dioxo-2,3-dihydro-1lambda6-thiophen-3-yl)-N-{[2-(2-hydroxypropan-2-yl)pyridin-4-yl]methyl}-N′,N′-dimethyl-2-[4-(pentafluoro-lambda6-sulfanyl)phenyl]butanediamide], the IC50 is over 50 µM.
For the compound `O=C(Cc1cc(-c2ccccc2)on1)N(Cc1ccncc1)C1C=CS(=O)(=O)C1` (stereo not drawn) [I-354, N-(1,1-dioxo-2,3-dihydro-1lambda6-thiophen-3-yl)-2-(5-phenyl-1,2-oxazol-3-yl)-N-[(pyridin-4-yl)methyl]acetamide], the IC50 was 10 to 50 µM.
As for `O=C(Cc1ccc(-c2ccc(F)cc2)cc1)N(Cc1ccccc1)C1C=C(CO)S(=O)(=O)C1` (stereo not drawn) [I-640, N-benzyl-2-{4′-fluoro-[1,1′-biphenyl]-4-yl}-N-[5-(hydroxymethyl)-1,1-dioxo-2,3-dihydro-1lambda6-thiophen-3-yl]acetamide], the IC50 was over 50 µM.
For the compound `N#Cc1cccc(CN(C(=O)Cc2ccc(-n3cccc3)cc2)C2C=CS(=O)(=O)C2)c1` (stereo not drawn) [I-286, N-[(3-cyanophenyl)methyl]-N-(1,1-dioxo-2,3-dihydro-1lambda6-thiophen-3-yl)-2-[4-(1H-pyrrol-1-yl)phenyl]acetamide], the IC50 fell in the range of 10 to 50 µM.
Consider `CC(=O)N(C)CC(C(=O)N(Cc1ccncc1)C1C=CS(=O)(=O)C1)c1ccc(-c2ccc(F)cc2)cc1` (stereo not drawn) [I-452, N-(1,1-dioxo-2,3-dihydro-1lambda6-thiophen-3-yl)-2-{4′-fluoro-[1,1′-biphenyl]-4-yl}-3-(N-methylacetamido)-N-[(pyridin-4-yl)methyl]propanamide], for which the IC50 was over 50 µM.
Turning to `COc1cc(CN(C(=O)C2Cc3cc(-c4ccc(F)cc4)ccc3O2)C2C=CS(=O)(=O)C2)ccn1` (stereo not drawn) [I-399, N-(1,1-dioxo-2,3-dihydro-1lambda6-thiophen-3-yl)-5-(4-fluorophenyl)-N-[(2-methoxypyridin-4-yl)methyl]-2,3-dihydro-1-benzofuran-2-carboxamide], the IC50 is over 50 µM.
The result for `O=C(Cc1coc(-c2ccc(F)cc2)n1)N(Cc1ccncc1)C1C=CS(=O)(=O)C1` (stereo not drawn) [I-543, N-(1,1-dioxo-2,3-dihydro-1lambda6-thiophen-3-yl)-2-[2-(4-fluorophenyl)-1,3-oxazol-4-yl]-N-[(pyridin-4-yl)methyl]acetamide] reads over 50 µM; that for `COc1cc(CN(C(=O)Cc2c(F)cc(-n3cccc3C)cc2F)C2C=CS(=O)(=O)C2)ccn1` (stereo not drawn) [I-241, 2-[2,6-difluoro-4-(2-methyl-1H-pyrrol-1-yl)phenyl]-N-(1,1-dioxo-2,3-dihydro-1lambda6-thiophen-3-yl)-N-[(2-methoxypyridin-4-yl)methyl]acetamide], 5 to 10 µM.
Turning to `O=C(Cc1ccc(-n2cccc2)cc1)N(CC1CCOCC1)C1C=CS(=O)(=O)C1` (stereo not drawn) [I-485, N-(1,1-dioxo-2,3-dihydro-1lambda6-thiophen-3-yl)-N-[(oxan-4-yl)methyl]-2-[4-(1H-pyrrol-1-yl)phenyl]acetamide], the IC50 is over 50 µM.
As for `COc1cc(CN(C(=O)Cc2ncc(-c3ccc(F)cc3)cc2F)C2C=CS(=O)(=O)C2)ccn1` (stereo not drawn) [I-172, N-(1,1-dioxo-2,3-dihydro-1lambda6-thiophen-3-yl)-2-[3-fluoro-5-(4-fluorophenyl)pyridin-2-yl]-N-[(2-methoxypyridin-4-yl)methyl]acetamide], the IC50 lay in the range of 0.5 to 5 µM.
